Assay results taken from publication PMC9652805, “Design, synthesis and evaluation of novel 1,2,4-triazole derivatives as promising anticancer agents” (BMC Chemistry, 2022).

Legend:
[1] = system: MCF-7 cells (human breast cancer cell line); assay: MTT cytotoxicity assay, MCF-7; type: cell-based; settings: mean ± SEM
Method: (§1) Cell cultures were obtained from the human lung cancer cell line (A549), human cervical cancer cell line (Hela), human breast cancer cell line (MCF-7) and Normal cells isolated from human lung tissue (MRC-5) taken from the National Cell Bank of Iran (NCBI, Pasteur Institute, Tehran, Iran). All cells were cultured in RPMI-1640 medium supplemented with 10% FBS, antibiotics (penicillin 100 U/mL, streptomycin 100 µg/mL), at 37 °C in a humidified atmosphere containing 5% CO2.
(§2) Cytotoxic activities of all the synthesized compounds were assessed by standard 3-(4,5-dimethylthiazol-yl)-2,5-diphenyl-tetrazolium bromide (MTT) assay. The assay was performed according to a known protocol. The cells were seeded and plated in 96-well microplates at a density of 1 × 10^4 cells per well in 180 μL complete culture media. After 24 h incubation, the cells were treated with […] of different concentrations of synthesized compounds ranging from 1 × 10^–4 to 1 × 10^–7 M at identical conditions in triplicates. After 72 h, media were replaced with 150 μL media containing 0.5 mg/mL of MTT solution [57]. The plates were incubated at 37 °C for additional four hours. Then, media containing MTT were discarded and 150 μL dimethylsulfoxide (DMSO, > 99%) was added to each well to dissolve the formazan crystals.

[2] = system: Hela cells (human cervical cancer cell line); assay: MTT cytotoxicity assay, Hela; type: cell-based; settings: 72 h, mean ± SEM
Method: as §1, §2

[3] = system: A549 cells (human lung cancer cell line); assay: MTT cytotoxicity assay, A549; type: cell-based; settings: mean ± SEM
Method: as §1, §2

[4] = system: MRC-5 cells (normal cells from human lung tissue); assay: MTT cytotoxicity assay, MRC-5 normal cell line (safety); type: cell-based; settings: mean ± SEM
Method: as §1, §2

SMILES	melting point	IC50 ([1]; Homo sapiens, MCF7, 72 h)	IC50 ([2]; Homo sapiens, HeLa)	IC50 ([3]; Homo sapiens, A549, 72 h)	IC50 ([4]; Homo sapiens, MRC5, 72 h)	IC50 [2]	IC50 ([1]; 72 h)	IC50 ([3]; 72 h)	IC50 ([4]; 72 h)
O=C(c1ccccc1)C(c1ccccc1)C(C(=O)c1ccc(Br)cc1)n1cncn1 (stereo not shown) [Compound 10i, 1-(4-bromophenyl)-3,4-diphenyl-2-(1H-1,2,4-triazol-1-yl) butane-1,4-dione]	168 to 171 °C	72.2 ± 6.5 µM	59.3 ± 2.7 µM	135 ± 5.3 µM	218 ± 3.2 µM	–	–	–	–
O=C(c1ccc(Cl)cc1Cl)C(C(c1ccccc1)c1ccccc1)n1cncn1 (stereo not shown) [Compound 7e, 1-(2,4-dichlorophenyl)-3,3-diphenyl-2-(1H-1,2,4-triazol-1-yl) propan-1-one]	118 to 121 °C	4.7 ± 1.4 µM	–	9.4 ± 1.8 µM	27.8 ± 3.7 µM	–	–	–	–
O=C(c1ccc(Br)cc1)C(C(c1ccccc1)c1ccccc1)n1cncn1 (stereo not shown) [Compound 7d, 1-(4-bromophenyl)-3,3-diphenyl-2-(1H-1,2,4-triazol-1-yl) propan-1-one]	110 to 113 °C	9.8 ± 0.9 µM	< 12 µM	43.4 ± 4.5 µM	35.6 ± 2.7 µM	12.1 ± 3.6 µM	–	–	–
O=C(c1ccccc1)C(c1ccccc1)C(C(=O)c1ccc(F)cc1F)n1cncn1 (stereo not shown) [Compound 10j, 1-(2,4-difluorophenyl)-3,4-diphenyl-2-(1H-1,2,4-triazol-1-yl) butane-1,4-dione]	114 to 117 °C	45.4 ± 3.2 µM	12.3 ± 1.9 µM	101 ± 1.8 µM	101 ± 1.3 µM	–	–	–	–
N.N.[Cl][Pt][Cl] [Cis platin, reference compound]	–	–	–	–	–	12.3 ± 3.3 µM	36.5 ± 1.9 µM	14.8 ± 0.27 µM	45.2 ± 2.5 µM
c1ccc(CC(Cc2ccccc2)n2cncn2)cc1 [Compound 8a, 1-(1,3-diphenylpropan-2-yl)-1H-1,2,4-triazole]	81 to 83 °C	158 ± 3.5 µM	142 ± 2.1 µM	127 ± 4.9 µM	279.1 ± 2.5 µM	–	–	–	–
O=C(c1ccccc1)C(c1ccccc1)C(C(=O)c1ccccc1)n1cncn1 (stereo not shown) [Compound 10f, 4-triphenyl-3-(1H-1,2,4-triazol-1-yl) butane-1,4-dione]	185 to 188 °C	134 ± 4.5 µM	82.7 ± 5.8 µM	114 ± 7.6 µM	289 ± 10.2 µM	–	–	–	–
Clc1ccc(CC(C(c2ccccc2)c2ccccc2)n2cncn2)cc1 (stereo not shown) [Compound 8b, 1-(3-(4-chlorophenyl)-1,1-diphenylpropan-2-yl)-1H-1,2,4-triazole]	93 to 96 °C	178 ± 2.5 µM	198 ± 5.5 µM	124 ± 3.4 µM	279 ± 2.8 µM	–	–	–	–
O=C(c1ccccc1)C(c1ccccc1)C(C(=O)c1ccc(Cl)cc1Cl)n1cncn1 (stereo not shown) [10 k, 1-(2,4-dichlorophenyl)-3,4-diphenyl-2-(1H-1,2,4-triazol-1-yl) butane-1,4-dione]	178 to 181 °C	44.1 ± 7.6 µM	121 ± 6.8 µM	102 ± 5.2 µM	148 ± 6.1 µM	–	–	–	–
Brc1ccc(CC(C(c2ccccc2)c2ccccc2)n2cncn2)cc1 (stereo not shown) [Compound 8c, 1-(3-(4-bromophenyl)-1,1-diphenylpropan-2-yl)-1H-1,2,4-triazole]	88 to 91 °C	52.8 ± 7.4 µM	79.1 ± 2.5 µM	104 ± 7.3 µM	104 ± 7.3 µM	–	–	–	–

Continued, in another order:

melting point	SMILES	IC50 ([1]; Homo sapiens, MCF7, 72 h)	IC50 ([2]; Homo sapiens, HeLa)	IC50 ([3]; Homo sapiens, A549, 72 h)	IC50 ([4]; Homo sapiens, MRC5, 72 h)	IC50 [2]	IC50 ([1]; 72 h)	IC50 ([3]; 72 h)	IC50 ([4]; 72 h)
121 to 123 °C	O=C(c1ccc(Cl)cc1Cl)C(Cc1ccccc1)n1cncn1 (stereo not shown) [Compound 7b, 1-(2,4-dichlorophenyl)-3-phenyl-2-(1H-1,2,4-triazol-1-yl) propan-1-one]	23.4 ± 2.6 µM	7.9 ± 3.1 µM	75.8 ± 4.6 µM	72.6 ± 3.4 µM	–	–	–	–
149 to 151 °C	O=C(CC(C(=O)c1ccc(Br)cc1)n1cncn1)c1ccccc1 (stereo not shown) [Compound 10c, 1-(4-bromophenyl)-4-phenyl-2-(1H-1,2,4-triazol-1-yl) butane-1,4-dione]	17.3 ± 5.4 µM	32.4 ± 6.9 µM	104 ± 1.3 µM	57.8 ± 1.7 µM	–	–	–	–
131 to 133 °C	O=C(CC(C(=O)c1ccc(Cl)cc1)n1cncn1)c1ccccc1 (stereo not shown) [Compound 10b, 1-(4-chlorophenyl)-4-phenyl-2-(1H-1,2,4-triazol-1-yl) butane-1,4-dione]	62.6 ± 2.5 µM	48.3 ± 4.1 µM	110 ± 1.3 µM	259 ± 8.3 µM	–	–	–	–
154 to 157 °C	O=C(c1ccccc1)C(c1ccccc1)C(C(=O)c1ccc(F)cc1)n1cncn1 (stereo not shown) [10 g, 1-(4-fluorophenyl)-3,4-diphenyl-2-(1H-1,2,4-triazol-1-yl) butane-1,4-dione]	93 ± 3.1 µM	128 ± 6.1 µM	150 ± 4.9 µM	257 ± 4.3 µM	–	–	–	–
153 to 156 °C	O=C(CC(C(=O)c1ccc(Cl)cc1Cl)n1cncn1)c1ccccc1 (stereo not shown) [Compound 10e, 1-(2,4-dichlorophenyl)-4-phenyl-2-(1H-1,2,4-triazol-1-yl) butane-1,4-dione]	45.4 ± 6.5 µM	31.6 ± 4.2 µM	104 ± 5.9 µM	104 ± 7.3 µM	–	–	–	–
145 to 148 °C	O=C(c1ccccc1)C(Cc1ccccc1)n1cncn1 (stereo not shown) [Compound 7a, 1,3-diphenyl-2-(1H-1,2,4-triazol-1-yl) propan-1-one]	154 ± 5.8 µM	92.4 ± 7.3 µM	150 ± 5.3 µM	> 300 µM	–	–	–	–
174 to 176 °C	O=C(c1ccccc1)C(c1ccccc1)C(C(=O)c1ccc(Cl)cc1)n1cncn1 (stereo not shown) [10 h, 1-(4-chlorophenyl)-3,4-diphenyl-2-(1H-1,2,4-triazol-1-yl) butane-1,4-dione]	89 ± 5.2 µM	172 ± 7.1 µM	112 ± 10.8 µM	249 ± 5.8 µM	–	–	–	–
140 to 142 °C	O=C(c1ccc(Cl)cc1)C(C(c1ccccc1)c1ccccc1)n1cncn1 (stereo not shown) [Compound 7c, 1-(4-chlorophenyl)-3,3-diphenyl-2-(1H-1,2,4-triazol-1-yl) propan-1-one]	60 ± 4.9 µM	81.7 ± 6.3 µM	177 ± 5.9 µM	201 ± 9.5 µM	–	–	–	–
162 to 165 °C	O=C(CC(C(=O)c1ccc(Br)cc1)n1cncn1)c1ccc(Cl)cc1 (stereo not shown) [Compound 10d, 1-(4-bromophenyl)-4-(4-chlorophenyl)-2-(1H-1,2,4-triazol-1-yl) butane-1,4-dione]	10.2 ± 2.1 µM	< 12 µM	16.5 ± 2.6 µM	42.8 ± 2.1 µM	9.8 ± 1.7 µM	–	–	–
115 to 118 °C	O=C(CC(C(=O)c1ccccc1)n1cncn1)c1ccccc1 (stereo not shown) [Compound 10a, 4-diphenyl-2-(1H-1,2,4-triazol-1-yl) butane-1,4-dione]	6.43 µM	–	21.1 ± 4.2 µM	21.7 ± 1.5 µM	–	6.4 ± 1.7 µM	–	–
